The record followed here is patent publication US20190055283A1, “AZA-PEPTIDE ALDEHYDES AND KETONES” (OHIO STATE INNOVATION FOUNDATION, priority 2016, published 2019).

By IC50 is commonly meant the concentration at which inhibition is half-maximal. Read a high IC50 as a need for much substance. A word on the Ki: it is the dissociation constant of the complex between target and ligand, obtained from inhibition or displacement.

The target of the first assay is legumain. Description: Legumain inhibition kinetic assay. It counts as biochemical.
Conditions: not given
On the procedure:
(§1) Generally, for the 20S proteasome the enzymatic hydrolysis of fluorogenic substrate Suc-LLVY-AMC by the 20S proteasome is monitored continuously for chymotrypsin-like (CT-L) activity at λexc=360, λem=460 nm for 45 min at 30° C. under standard assay conditions (Assay buffer: pH 7.5, 20 mM Tris, 0.02% w/v SDS, 1 mM EDTA, 2% v/v DMSO). Caspase activities are measured in 100 mM HEPES, 10% sucrose, 0.1% CHAPS, 10 mM DTT, pH 7.5 and 25° C.^21 Legumain activity is measured in 0.1 M citrate-phosphate buffer at pH 6.8 containing 4 mM DTT with Cbz-AAN-AMC as the substrate^9b. Activity of the MALT1 active fragment (aa325-769) is detected by cleavage of the tetra-peptide substrate LRSR-AMC (7-amino-4-methylcoumarin) that results in fluorescence emission when AMC is released. IC50 values are determined for the new compounds by dose-dependent inhibition. In parallel, well-characterized MALT1 inhibitors (e.g. Z—VRPR-FMIK, mepazine, MI-2) are used as reference compounds. Cathepsin B activity is performed in 0.1 M phosphate, 1.25 mM EDTA, 0.01% Brij, pH 6.0. Papain activity is measured in 10 mM DTT, 50 mM phosphate, pH 6.2. Trypsin activity is performed in 0.046 M Tris/HCl buffer at pH 8.1 with 0.0115 M CaCl2.
(§2) Results from kinetic assays for compounds tested against the 20S proteasome, caspase-3, and legumain are shown in Table 4, Table 5, and Table 6, respectively.
Consider `C[C@H](NC(=O)OCc1ccccc1)C(=O)N[C@@H](C)C(=O)NN(CC(N)=O)C(=O)C(=O)Cc1ccccc1` [Z-Ala-Ala-AAsn-COBn, Benzyl((S)-1-(((S)-1-(2-(2-amino-2-oxoethyl)-2-(2-oxo-3-phenylpropanoyl) hydrazinyl)-1-oxopropan-2-yl)amino)-1-oxopropan-2-yl)carbamate], for which the “Ki (μM)” value is listed as “Weak”.
On the same count and under the same terms, with `CC(=O)C(=O)N(CC(N)=O)NC(=O)[C@H](C)NC(=O)[C@H](C)NC(=O)OCc1ccccc1` [Z-Ala-Ala-AAsn-COMe, Benzyl ((S)-1-(((S)-1-(2-(2-amino-2-oxoethyl)-2-(2-oxopropanoyl)hydrazinyl)-1-oxopropan-2-yl)amino)-1-oxopropan-2-yl)carbamate] the entry was “Weak”; with `CCOC(=O)C(=O)N(CC(N)=O)NC(=O)[C@H](C)NC(=O)[C@H](C)NC(=O)OCc1ccccc1` [Z-Ala-Ala-AAsn-COOEt, Ethyl 2-(1-(2-amino-2-oxoethyl)-2-(((benzyloxy)carbonyl)-L-alanyl-L-alanyl)hydrazinyl)-2-oxoacetate], “Weak”.

In a further assay the target is T1, caspase-3 (Homo sapiens, UniProt P42574).
T1 construct: Professor Guy Salvesen, Burnham Institute (gift, not a purchase)
T1 sequence (P42574 29-175 limits assumed): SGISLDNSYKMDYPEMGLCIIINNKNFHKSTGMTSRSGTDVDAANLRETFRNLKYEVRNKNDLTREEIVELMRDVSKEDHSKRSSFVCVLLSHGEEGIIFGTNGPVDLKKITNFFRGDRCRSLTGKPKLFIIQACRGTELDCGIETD
In words: Caspase 3 inhibition kinetic assay. The class given is biochemical.
Conditions: not given
On the procedure: as §1, §2
`CC(=O)C(=O)N(CC(=O)O)NC(=O)[C@@H](NC(=O)[C@H](CCC(=O)O)NC(=O)[C@H](CC(=O)O)NC(=O)OCc1ccccc1)C(C)C` [Z-Asp-Glu-Val-AAsp-COMe, (5S,8S,11S)-8-(2-carboxyethyl)-5-(carboxymethyl)-11-isopropyl-3,6,9,12-tetraoxo-14-(2-oxopropanoyl)-1-phenyl-2-oxa-4,7,10,13,14-pentaazahexadecan-16-oic acid]: inhibition was half-maximal at 0.055 µM (IC50).
In turn, `CC(C)[C@H](NC(=O)[C@H](CCC(=O)O)NC(=O)[C@H](CC(=O)O)NC(=O)OCc1ccccc1)C(=O)N[C@H](C=O)CC(=O)O` [Z-Asp-Glu-Val-Asp-COH, reference compound] displayed an IC50 of 0.0045 µM.

The target in another assay is T2, human 20S proteasome (Homo sapiens, UniProt P20618+P28074).
T2 construct: purchased
In words: Kinetic assay of 20S proteasome chymotryptic activity (Suc-LLVY-AMC). It counts as biochemical. The settings on record: Suc-LLVY-AMC substrate, pH 7.8, 37° C., competitive inhibition model. The procedure:
Kinetic assays were performed on a fluorescent 96-well plate reader with human 20S proteasome. Chymotryptic activity was measured in 20 mM HEPES, 0.5 mM EDTA, 0.037% SDS, pH 7.8 at 37° C., using 0-100 μM Suc-LLVY-AMC as the fluorogenic substrate, and […] 4.42×10^−4 mg/100 μL enzyme.
Triplicates of velocities (fluorescence vs time) were obtained at various concentrations of substrate ([…]) and aza-peptide inhibitor (0, 25, 50, 100 μM) then converted to specific activity using Lambert-Beer's law and enzyme concentration.
Enzyme specific activities were fit to a competitive inhibition model using GraphPad Prism software for nonlinear fitting.
For `CC(C)C[C@H](NC(=O)OCc1ccccc1)C(=O)N[C@@H](CC(C)C)C(=O)NN(C)C(=O)C=O` [Z-Leu-Leu-AAla-COH, Benzyl ((S)-4-methyl-1-(((S)-4-methyl-1-(2-methyl-2-(2-oxoacetyl)hydrazinyl)-1-oxopentan-2-yl)amino)-1-oxopentan-2-yl)carbamate], the inhibitory constant (Ki) was 44 µM.
Still for that read-out and setting: the figure for `CC(=O)C(=O)N(C)NC(=O)[C@H](CC(C)C)NC(=O)[C@H](CC(C)C)NC(=O)OCc1ccccc1` [Z-Leu-Leu-AAla-COMe, Benzyl ((S)-4-methyl-1-(((S)-4-methyl-1-(2-methyl-2-(2-oxopropanoyl)hydrazinyl)-1-oxopentan-2-yl)amino)-1-oxopentan-2-yl)carbamate] is 73 µM; for `CC(C)C[C@H](NC(=O)OCc1ccccc1)C(=O)N[C@@H](CC(C)C)C(=O)NNC(=O)C=O` [Z-Leu-Leu-AGly-COH, Benzyl ((S)-4-methyl-1-(((S)-4-methyl-1-oxo-1-(2-(2-oxoacetyl)hydrazinyl)pentan-2-yl)amino)-1-oxopentan-2-yl)carbamate] it is 35 µM; for `CC(=O)C(=O)NNC(=O)[C@H](CC(C)C)NC(=O)[C@H](CC(C)C)NC(=O)OCc1ccccc1` [Z-Leu-Leu-AGly-COMe, Benzyl((S)-4-methyl-1-(((S)-4-methyl-1-oxo-1-(2-(2-oxopropanoyl)hydrazinyl)pentan-2-yl)amino)-1-oxopentan-2-yl)carbamate] it is 29 µM.
Still for that read-out and setting: with `CC(C)C[C@H](NC(=O)OCc1ccccc1)C(=O)N[C@@H](CC(C)C)C(=O)NN(CC(C)C)C(=O)C(=O)Cc1ccccc1` [Z-Leu-Leu-ALeu-COBn, Benzyl ((S)-1-(((S)-1-(2-isobutyl-2-(2-oxo-3-phenylpropanoyl)hydrazinyl)-4-methyl-1-oxopentan-2-yl)amino)-4-methyl-1-oxopentan-2-yl)carbamate] the figure was 81 µM; with `CC(C)C[C@H](NC(=O)OCc1ccccc1)C(=O)N[C@@H](CC(C)C)C(=O)NN(CC(C)C)C(=O)C=O` [Z-Leu-Leu-ALeu-COH, Benzyl ((S)-1-(((S)-1-(2-isobutyl-2-(2-oxoacetyl)hydrazinyl)-4-methyl-1-oxopentan-2-yl)amino)-4-methyl-1-oxopentan-2-yl)carbamate], 24 µM; with `CC(=O)C(=O)N(CC(C)C)NC(=O)[C@H](CC(C)C)NC(=O)[C@H](CC(C)C)NC(=O)OCc1ccccc1` [Z-Leu-Leu-ALeu-COMe, Benzyl((S)-1-(((S)-1-(2-isobutyl-2-(2-oxopropanoyl)hydrazinyl)-4-methyl-1-oxopentan-2-yl)amino)-4-methyl-1-oxopentan-2-yl)carbamate], 27 µM.
Regarding `CCOC(=O)C(=O)N(CC(C)C)NC(=O)[C@H](CC(C)C)NC(=O)[C@H](CC(C)C)NC(=O)OCc1ccccc1` [Z-Leu-Leu-ALeu-COOEt, Ethyl 2-(2-(((benzyloxy)carbonyl)-L-leucyl-L-leucyl)-1-isobutylhydrazinyl)-2-oxoacetate], the “Ki (μM)” value is “weak”.
`CC(C)C[C@H](NC(=O)OCc1ccccc1)C(=O)N[C@@H](Cc1ccccc1)C(=O)NN(CC(C)C)C(=O)C(=O)Cc1ccccc1` [Z-Leu-Phe-ALeu-COBn, Benzyl ((S)-1-(((S)-1-(2-isobutyl-2-(2-oxo-3-phenylpropanoyl)hydrazinyl)-1-oxo-3-phenylpropan-2-yl)amino)-4-methyl-1-oxopentan-2-yl)carbamate] registered a Ki of 55 µM. This lies in the double-digit micromolar range.
The same measure, in the same setting: with `CC(=O)C(=O)N(CC(C)C)NC(=O)[C@H](Cc1ccccc1)NC(=O)[C@H](CC(C)C)NC(=O)OCc1ccccc1` [Z-Leu-Phe-ALeu-COMe, Benzyl((S)-1-(((S)-1-(2-isobutyl-2-(2-oxopropanoyl)hydrazinyl)-1-oxo-3-phenylpropan-2-yl)amino)-4-methyl-1-oxopentan-2-yl)carbamate] the figure was 47 µM.
